Experiment: xn = mol fraction of the nth substance listed
Conditions: 100 kPa

CCCC[n+]1ccn(C)c1.O=S(=O)([N-]S(=O)(=O)C(F)(F)F)C(F)(F)F + CCO
viscosity [mPa·s]
Conditions | x1 = 0.2129 | x1 = 0.2688 | x1 = 0.4215 | x1 = 0.4606 | x1 = 0.5784 | x1 = 0.6609 | x1 = 0.747 | x1 = 0.8264 | x1 = 1
307.85 K | – | – | – | – | – | 15.81 | 19.9 | 23.3 | 34.7
308.15 K | 3.69 | – | 8.06 | 9.01 | 13.11 | – | 19.7 | 23 | 34.3
308.45 K | – | 4.5 | 7.99 | 8.94 | 13 | – | – | 22.8 | 33.9
308.76 K | 3.64 | 4.47 | – | 8.86 | – | 15.39 | – | 22.5 | 33.5
309.06 K | 3.61 | – | 7.86 | 8.79 | 12.77 | 15.25 | 19.2 | 22.3 | 33.1
309.36 K | 3.59 | 4.4 | 7.8 | 8.72 | 12.66 | 15.11 | 19 | 22.1 | 32.8
309.67 K | 3.56 | 4.37 | – | 8.65 | 12.55 | 14.98 | 18.8 | 21.8 | –
309.97 K | 3.54 | 4.34 | 7.67 | – | 12.44 | 14.85 | – | 21.6 | 32.1
310.27 K | 3.52 | 4.31 | 7.61 | 8.51 | 12.33 | 14.71 | 18.4 | 21.4 | 31.7
310.58 K | 3.49 | 4.28 | 7.55 | 8.44 | 12.22 | 14.58 | – | 21.1 | 31.4
310.88 K | – | 4.25 | 7.49 | 8.38 | – | 14.45 | 18.09 | – | 31
311.18 K | 3.44 | 4.22 | 7.43 | – | 12.01 | 14.33 | 17.92 | 20.7 | 30.7
311.48 K | – | 4.19 | 7.37 | 8.24 | 11.91 | 14.2 | 17.75 | 20.5 | 30.4
311.79 K | 3.39 | 4.16 | 7.31 | – | – | 14.07 | – | – | 30.1
312.09 K | 3.37 | – | 7.25 | 8.11 | 11.7 | – | 17.42 | 20.1 | 29.7
312.39 K | 3.35 | – | 7.19 | – | 11.6 | 13.83 | 17.26 | 19.8 | 29.4
312.7 K | 3.32 | – | 7.13 | 7.98 | 11.5 | 13.7 | 17.1 | 19.6 | 29.1
313 K | 3.3 | 4.04 | 7.08 | 7.92 | 11.4 | 13.58 | – | 19.4 | –
313.3 K | 3.28 | 4.02 | – | 7.86 | 11.3 | 13.46 | 16.78 | 19.2 | 28.5
313.61 K | 3.26 | 3.99 | 6.96 | 7.8 | 11.21 | 13.34 | 16.62 | – | 28.2
313.91 K | 3.23 | 3.96 | 6.91 | 7.74 | 11.11 | – | – | 18.8 | 27.9
314.21 K | – | – | 6.86 | 7.68 | 11.02 | 13.11 | – | 18.6 | 27.6
314.52 K | 3.19 | 3.9 | 6.8 | 7.62 | – | 13 | – | 18.5 | 27.3
314.82 K | 3.17 | 3.88 | 6.75 | 7.56 | 10.83 | – | 16.02 | 18.3 | 27.1
315.12 K | 3.14 | 3.85 | 6.7 | 7.5 | 10.74 | 12.77 | 15.87 | – | 26.8
315.42 K | 3.12 | – | 6.64 | 7.44 | 10.64 | – | 15.72 | 17.9 | 26.5
315.73 K | 3.1 | 3.79 | – | 7.38 | – | – | 15.58 | 17.7 | 26.2
316.03 K | 3.08 | – | 6.54 | 7.33 | 10.46 | 12.44 | 15.43 | 17.5 | 26
316.33 K | 3.06 | 3.74 | 6.49 | – | 10.38 | 12.33 | 15.29 | 17.4 | 25.7
316.64 K | 3.03 | 3.71 | – | 7.21 | – | 12.22 | 15.15 | 17.2 | –
316.94 K | 3.01 | 3.69 | 6.39 | 7.16 | 10.2 | – | 15.01 | – | 25.2
317.24 K | 2.99 | 3.66 | 6.34 | 7.1 | 10.11 | – | 14.88 | 16.9 | 24.9
317.55 K | 2.97 | – | – | 7.05 | – | 11.91 | 14.74 | 16.7 | 24.7
317.85 K | 2.95 | 3.61 | – | 6.99 | 9.94 | – | 14.6 | 16.5 | –
318.15 K | 2.93 | – | 6.2 | – | 9.86 | 11.7 | 14.47 | 16.3 | 24.2
318.45 K | 2.91 | 3.56 | 6.15 | 6.89 | 9.78 | 11.6 | 14.34 | – | 23.9
318.76 K | 2.89 | 3.53 | 6.1 | – | – | 11.5 | 14.21 | 16.02 | –
319.06 K | – | 3.51 | 6.06 | 6.78 | 9.61 | 11.4 | 14.08 | 15.86 | 23.5
319.36 K | 2.85 | 3.48 | 6.01 | 6.73 | 9.53 | 11.3 | 13.95 | 15.71 | 23.2
319.67 K | 2.83 | 3.46 | – | 6.68 | 9.45 | 11.2 | – | 15.55 | 23
319.97 K | 2.81 | 3.43 | 5.92 | – | – | 11.1 | 13.7 | 15.4 | 22.8
320.27 K | 2.79 | 3.41 | 5.88 | 6.58 | – | 11.01 | – | – | 22.6
320.58 K | 2.77 | 3.38 | – | 6.53 | 9.22 | 10.91 | 13.45 | 15.09 | 22.3
320.88 K | 2.75 | 3.36 | 5.79 | 6.48 | 9.14 | 10.82 | 13.33 | 14.95 | 22.1
321.18 K | 2.73 | 3.34 | 5.74 | – | 9.06 | – | 13.21 | 14.8 | 21.9
321.48 K | 2.71 | 3.31 | 5.7 | 6.38 | 8.99 | 10.63 | – | 14.66 | 21.7
321.79 K | 2.69 | – | 5.66 | – | 8.91 | 10.54 | 12.97 | 14.51 | 21.5
322.09 K | – | 3.27 | – | 6.29 | 8.84 | 10.45 | 12.86 | 14.37 | –
322.39 K | 2.65 | 3.24 | 5.58 | 6.24 | 8.76 | 10.36 | – | 14.23 | 21.1
322.7 K | 2.63 | 3.22 | 5.53 | 6.19 | 8.69 | 10.27 | – | 14.09 | 20.9
323 K | 2.62 | 3.2 | 5.49 | – | 8.62 | 10.18 | 12.51 | 13.96 | 20.7

Reference: a compilation of properties of binary mixtures (doi:10.1016/j.molliq.2018.02.064)
